Test results taken from patent US20220184008A1, “MODULATORS OF INTRACELLULAR CHLORIDE CONCENTRATION” (FONDAZIONE ISTITUTO ITALIANO DI TECNOLOGIA, priority 2019, published 2022).

Columns and labels:
[1] = target: T1, NKCC1 (Homo sapiens, UniProt P55011); assay: Chloride kinetic assay (Cl-sensitive YFP) in NKCC1-transfected HEK293 cells; assay type: cell-based; settings: 10 μM, NKCC1-transfected HEK293; for inhibition at 10 µM: read-out: NKCC1 Inhibition % 10 μM HEK Chloride YFP assay
T1 construct: expressed in transfected cells; host or cells: HEK293
T1 sequence (P55011 1-1212): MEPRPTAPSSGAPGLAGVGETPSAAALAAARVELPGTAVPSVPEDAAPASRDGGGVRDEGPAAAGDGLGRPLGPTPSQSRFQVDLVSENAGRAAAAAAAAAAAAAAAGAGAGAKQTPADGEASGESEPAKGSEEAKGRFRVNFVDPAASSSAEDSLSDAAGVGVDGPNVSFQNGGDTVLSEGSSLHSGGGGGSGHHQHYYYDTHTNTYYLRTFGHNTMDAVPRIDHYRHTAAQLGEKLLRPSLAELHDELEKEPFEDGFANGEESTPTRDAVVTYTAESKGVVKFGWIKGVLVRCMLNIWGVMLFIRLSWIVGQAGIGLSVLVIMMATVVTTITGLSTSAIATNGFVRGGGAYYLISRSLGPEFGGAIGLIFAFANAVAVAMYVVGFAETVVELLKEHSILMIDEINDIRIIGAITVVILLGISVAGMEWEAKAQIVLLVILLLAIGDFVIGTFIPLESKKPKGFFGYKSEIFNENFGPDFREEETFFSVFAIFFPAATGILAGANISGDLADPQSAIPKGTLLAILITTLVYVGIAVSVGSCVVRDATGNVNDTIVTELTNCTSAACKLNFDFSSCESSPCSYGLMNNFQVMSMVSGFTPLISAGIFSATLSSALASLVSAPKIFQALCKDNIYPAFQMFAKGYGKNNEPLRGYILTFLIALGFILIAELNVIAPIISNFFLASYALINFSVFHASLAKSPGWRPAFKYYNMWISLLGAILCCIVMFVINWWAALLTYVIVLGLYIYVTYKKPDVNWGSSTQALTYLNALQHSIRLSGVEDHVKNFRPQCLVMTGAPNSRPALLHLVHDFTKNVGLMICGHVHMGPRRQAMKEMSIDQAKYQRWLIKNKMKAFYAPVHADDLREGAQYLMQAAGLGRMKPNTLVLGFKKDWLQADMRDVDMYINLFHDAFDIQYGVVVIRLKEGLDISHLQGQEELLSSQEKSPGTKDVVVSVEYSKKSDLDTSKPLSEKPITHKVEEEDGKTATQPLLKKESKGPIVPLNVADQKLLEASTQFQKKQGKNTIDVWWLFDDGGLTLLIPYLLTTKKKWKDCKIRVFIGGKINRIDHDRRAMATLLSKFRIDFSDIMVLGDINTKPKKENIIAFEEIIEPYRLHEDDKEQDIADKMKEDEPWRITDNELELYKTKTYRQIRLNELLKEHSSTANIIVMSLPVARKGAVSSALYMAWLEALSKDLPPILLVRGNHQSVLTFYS
Experimental: FIG. 1: In vitro testing of the NKCC1 inhibitors in the chloride kinetic assay a) Example traces obtained in the chloride kinetic assay on HEK cells transfected with the YFP (mock) or with YFP and NKCC1. The arrow indicates the addition of NaCl (final concentration 74 mM) used to initiate the flux assay. b) Quantification of the effect of bumetanide (10 μM and 100 μM) or furosemide (10 μM and 100 μM) in the chloride kinetic assay on mock or NKCC1-transfected HEK293 cells. Data represents mean±sem from 5 independent experiments. c) Quantification of the effect of bumetanide and furosemide and 2 selected compounds (3.8, 3.17) in the chloride kinetic assay on NKCC1-transfected HEK293 cells. Data represents mean±sem from 5 independent experiments, and they are represented as % of the controls. *P<0.05, **P<0.01, ***P<0.001 Kruskal-Wallis Anova (Dunn's Post hoc Test); ###P<0.001 two-tailed unpaired Student t-test.
To screen in vitro the compounds efficiency in blocking NKCC1, a functional NKCC1 transporter assay was performed by measuring variation of Cl^− ion concentration in the cell through a Cl^− sensitive membrane-tagged yellow fluorescent protein (mbYFPQS, Addgene). mbYFPQS fluorescence is inversely dependent on the concentration of Cl^− inside the cell thus allowing an indirect estimation of the Cl^− transporter activity. In particular, HEK293 cells were transfected with NKCC1 or mock construct (control) together with the Cl^− sensitive YFP. After 2 DIV, the cells were treated with bumetanide and furosemide (as positive controls) or with each of the tested compounds of the invention in a Cl^− free medium. After 30 min, the inhibitory activity of the compounds was tested by monitoring fluorescence upon application of NaCl (FIG. 1a). Transported by NKCC1, Cl binds the YFP, leading to a fluorescence decrease. […] With the Cl kinetic assay, the NKCC1 inhibitory activity of the selected compounds was tested (FIG. 1c).

[2] = system: NKCC1; assay: Calcium kinetic assay in primary cultures of immature hippocampal neurons; assay type: cell-based; settings: 10 μM, immature neurons 3 DIV
Experimental: FIG. 2: In vitro testing of the NKCC1 inhibitors in a calcium kinetic assay. a) Example traces of fluorescence levels upon application of GABA (100 μM) and KCl (90 mM) used to trigger calcium influx in primary neuronal cultures treated after 3 days in culture (3 DIV) with vehicle, bumetanide, furosemide and compounds 3.8, 3.13 and 3.17 in the calcium kinetic assay. b) Quantification of the average fluorescence increase upon GABA application normalized to the increase upon KCl application in neurons treated with bumetanide, furosemide and 3 exemplary compounds (3.8, 3.13, 3.17) (10 μM, 100 μM). Data represents mean±sem from 5 independent experiments, and they are presented as % of the control. *P<0.05, **P<0.01, ***P<0.001 Kruskal-Wallis Anova (Dunn's Post hoc Test).
Next, the compounds of the invention were tested for their ability to revert the depolarizing GABAergic signaling in immature neurons. This effect was indirectly measured as calcium influx into the cells with an in vitro calcium kinetic assay in primary cultures of hippocampal neurons. The calcium kinetic assay exploits the physiological, endogenous, high expression of NKCC1 in immature neurons, which causes depolarizing actions of GABA and can activate voltage-gated Ca^2+ channels. Thus, in immature neurons, a compound that blocks NKCC1 is predicted to inhibit Ca^2+ responses upon GABA application. Immature neurons were cultured for 3 days in vitro (3 DIV) and loaded for 15 min with a calcium-sensitive dye (Fluo4). Then, the neurons were treated with bumetanide and furosemide (as positive controls) or with each of the selected compounds for 15 min. As a functional readout, the fluorescence level was monitored in these cultures before and after application of GABA (100 μM, for 20 sec). To test for neuronal viability at the end of the experiment, KCl was applied (90 mM, for 40 sec), which strongly depolarizes neurons, causing high activation of voltage-gated Ca^2+ channels in live cells. To quantify how bumetanide, furosemide, and selected compounds influenced NKCC1 inhibition, the fluorescence values were normalized upon GABA application to the fluorescence levels upon KCl application in treated neurons.

Row | inhibition at 10 µM ([1]; Table 1) [%] | NKCC1 Inhibition % 10 μM HEK Chloride YFP assay ([1]; Table 1) | NKCC1 Inhibition % 10 μM HEK Chloride YFP assay ([1]; Table 2) | Structure (SMILES) | NKCC1 Inhibition % 10 μM Neurons Calcium kinetic assay ([2]; Table 1) | NKCC1 Inhibition % 10 μM Neurons Calcium kinetic assay ([2]; Table 2)
1 | 3 |  |  | CN(C)S(=O)(=O)c1cc(C(=O)O)ccc1N1CCN(CCCCC(F)(F)F)CC1 [Compound 9.1, 3-(dimethylsulfamoyl)-4-[4-(5,5,5 trifluoropentyl)piperazin-1-yl] benzoic acid] |  | 
2 |  |  |  | O=C(O)c1ccc(NCCCCCCCC(F)(F)F)c(S(=O)(=O)N2CCC(F)(F)CC2)c1 [Compound 14.4, 3-((4,4-difluoropiperidin-1-yl)sulfonyl)-4-((8,8,8-trifluorooctyl)amino)benzoic acid] | 48.0% | 
3 | 2 |  |  | O=C(O)c1ccc(NCCCCCCCC(F)(F)F)c(S(=O)(=O)N2CCCC2)c1 [Compound 5.5, 3-pyrrolidin-1-ylsulfonyl-4-(8,8,8-trifluorooctylamino) benzoic acid] | 39% | 39%
4 | 6 |  |  | COCCCCNc1ccc(C(=O)O)cc1S(=O)(=O)N(C)C [Compound 3.19, 3-(dimethylsulfamoyl)-4-(4-methoxybutylamino)benzoic acid] | Inactive | Inactive
5 | 13 |  |  | COCCNc1ccc(C(=O)O)cc1S(=O)(=O)N(C)C [Compound 3.18, 3-(dimethylsulfamoyl)-4-(2-methoxyethylamino)benzoic acid] | Inactive | Inactive
6 | 11 |  |  | CN(C)S(=O)(=O)c1cc(C(=O)O)ccc1NCCCC(F)(F)F [Compound 3.15, 3-(dimethylsulfamoyl)-4-(4,4,4 trifluorobutylamino) benzoic acid] | Inactive | Inactive
7 |  |  |  | CN(C)S(=O)(=O)c1cc(C(=O)O)c(OC2CCCC2)cc1NCCCCCCCC(F)(F)F [Compound 12.10] | 26.6% | 
8 |  | Inactive | Inactive | O=C(O)c1ccc(NCCCCCCCC(F)(F)F)c(S(=O)(=O)N2CCCCC2)c1 [Compound 5.6, 3-(1-piperidylsulfonyl)-4-(8,8,8-trifluorooctylamino) benzoic acid] | 55% | 55%
9 | 30 |  |  | NS(=O)(=O)c1cc(C(=O)O)c(O)cc1NCCCCCCCC(F)(F)F [Compound 7.4, 2-hydroxy-5-sulfamoyl-4-(8,8,8-trifluorooctylamino) benzoic acid] | 24% | 
10 |  |  |  | COc1cc(NCCCCCCCC(F)(F)F)c(S(=O)(=O)N(C)C)cc1C(=O)O [Compound 13.1, 5-(N,N-dimethylsulfamoyl)-2-methoxy-4-((8,8,8-trifluorooctyl)amino)benzoic acid] | 14.2% | 
11 |  | Inactive | Inactive | CNS(=O)(=O)c1cc(C(=O)O)ccc1NCCCCCCCC(F)(F)F [Compound 3.10, 3-(methylsulfamoyl)-4-(8,8,8-trifluorooctylamino)benzoic acid] | 14% | 14%
12 |  | Inactive | Inactive | COCCCCCCNc1ccc(C(=O)O)cc1S(=O)(=O)N(C)C [Compound 3.20, 3-(dimethylsulfamoyl)-4-(6-methoxyhexylamino)benzoic acid] | 20% | 20%
13 | 4 |  |  | O=C(O)c1ccc(NCCCCCCCC(F)(F)F)c(S(=O)(=O)NC2CCCCC2)c1 [Compound 3.22, 3-(cyclohexylsulfamoyl)-4-(8,8,8-trifluorooctylamino) benzoic acid] | 54% | 54%
14 | 17 |  |  | CN(C)S(=O)(=O)c1cc(C(=O)O)ccc1NCCCCCC(F)(F)F [Compound 3.16, 3-(dimethylsulfamoyl)-4-(6,6,6-trifluorohexylamino) benzoic acid] | Inactive | Inactive
15 | 20 |  |  | CN(C)S(=O)(=O)c1cc(C#N)ccc1NCCCCCCCC(F)(F)F [Compound 6.3, 5-cyano-N,N-dimethyl-2-(8,8,8-trifluorooctylamino) benzenesulfonamide] |  | 
16 |  |  |  | CCOc1cc(NCCCCCCCC(F)(F)F)c(S(=O)(=O)N(C)C)cc1C(=O)O [Compound 12.9] | 12.2% | 
17 |  |  |  | O=C(O)c1ccc(NCCCCCCCC(F)(F)F)c(S(=O)(=O)N2CCOCC2)c1 [Compound 14.3, 3-morpholinosulfonyl-4-((8,8,8-trifluorooctyl)amino)benzoic acid] | 7.1% | 

Row | Structure (SMILES) | inhibition at 10 µM ([1]; Table 1) [%] | NKCC1 Inhibition % 10 μM HEK Chloride YFP assay ([1]; Table 1) | NKCC1 Inhibition % 10 μM HEK Chloride YFP assay ([1]; Table 2) | NKCC1 Inhibition % 10 μM Neurons Calcium kinetic assay ([2]; Table 1) | NKCC1 Inhibition % 10 μM Neurons Calcium kinetic assay ([2]; Table 2)
18 | O=C(O)c1ccc(NCCCCCCCC(F)(F)F)c(S(=O)(=O)N2CCOCC2)c1 [Compound 5.7, 3-morpholinosulfonyl-4-(8,8,8-trifluorooctylamino) benzoic acid] | 13 |  |  | 24% | 24%
